Experiment [1] has as its target T1, L-lysine-epsilon aminotransferase (Mycobacterium tuberculosis) (UniProt P9WQ77).
T1 sequence (whole entry): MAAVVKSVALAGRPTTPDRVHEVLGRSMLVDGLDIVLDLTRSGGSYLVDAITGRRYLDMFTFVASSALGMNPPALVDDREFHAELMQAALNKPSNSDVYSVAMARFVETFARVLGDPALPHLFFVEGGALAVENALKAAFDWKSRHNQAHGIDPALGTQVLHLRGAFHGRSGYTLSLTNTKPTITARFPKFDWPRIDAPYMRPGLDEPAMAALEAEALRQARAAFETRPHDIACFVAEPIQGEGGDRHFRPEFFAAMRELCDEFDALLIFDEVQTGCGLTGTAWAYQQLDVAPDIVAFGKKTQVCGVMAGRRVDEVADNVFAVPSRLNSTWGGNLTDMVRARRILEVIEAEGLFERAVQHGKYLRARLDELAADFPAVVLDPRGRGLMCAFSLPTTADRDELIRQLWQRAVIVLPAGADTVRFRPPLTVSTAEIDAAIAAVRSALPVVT
Description: Inhibition of Mycobacterium tuberculosis lysine-epsilon aminotransferase at 400 uM.

The target in experiment [2] is T1, L-lysine-epsilon aminotransferase (Mycobacterium tuberculosis). Description: Inhibition of Mycobacterium tuberculosis lysine-epsilon aminotransferase at 600 uM.

Molecules are shown by their SMILES. Calls of active or inactive are those of the source. The rule behind the calls is not given here.

As to `CN(CC(O)c1ccccc1)CC1CCCCN1C` (configuration not stated), the inhibition result in experiment [1] was “Active”.
For the compound `COc1ccc(CC(=O)NCC2c3[nH]c4ccccc4c3CC3C(=O)N(CCc4ccc(OC)c(OC)c4)C(=O)N32)cc1` (configuration not stated), in experiment [2], the inhibition came out at 60%.

(Values after ChEMBL document CHEMBL3045070, “Identification of in vitro inhibitors of Mycobacterium tuberculosis Lysine -aminotransferase by pharmacophore mapping and three-dimensional flexible searches” (Med Chem Res, 2008).)
